Measurements from patent US8178506B2, “Oligomeric compounds and compositions for use in modulation of small non-coding RNAs” (Regulus Therapeutics Inc., priority 2003, dated 2012).
Entries after “also recorded” stand apart in the source; their conditions may differ. In the oligonucleotide strings, read from the 5' end, every base follows the letter of its sugar. An asterisk marks phosphorothioate; unmarked linkages are phosphodiester. Other units and linkages are bracketed, terminal groups are in braces. A string of capitals states the bases alone. e = 2'-O-(2-methoxyethyl) (MOE); [5mC] = 5-methylcytosine; d = 2'-deoxy (DNA)

Tested on: mir-21 pri-miRNA
Assay: mir-21 pri-miRNA expression in HeLa cells (real-time RT-PCR)
Assay type: cell-based, human
Conditions: for mir-21 pri-miRNA expression % UTC: HeLa cells, real-time RT-PCR; for mir-21 pri-miRNA expression % UTC / levels of the mir-21 pri-miRNA molecule: 100 nM; for levels of the mir-21 pri-miRNA molecule: HeLa
Description: In one embodiment, the expression of mir-21 (noted to be expressed at high levels in HeLa cells) was assessed in cells treated with oligomeric compounds. Using the transfection methods previously described, HeLa cells were treated with 100 nM of the uniform 2′-MOE oligomeric compound ISIS Number 327917 (SEQ ID NO: 335) targeting the mir-21 mature miRNA. Total RNA was isolated by lysing cells in 1 mL TRIZOL™ (Invitrogen) using the manufacturer's recommended protocols. […] Real-time RT-PCR analysis was also performed on HeLa cells treated with ISIS 327917 using a primer/probe set specific for the mir-21 pri-miRNA molecule [forward primer=ISIS 339332 ([…]; herein incorporated as SEQ ID NO.: 911), reverse primer-ISIS 339333 (TCGACTGGTGTTGCCATGA; herein incorporated as SEQ ID NO.: 912), and probe=ISIS 339334 ([…]; herein incorporated as SEQ ID NO.: 913)]. Total RNA was quantified using RiboGreen™ RNA quantification reagent (Molecular Probes, Inc. Eugene, Oreg.), expression levels observed for the target were normalized to 5.8S rRNA, and values were expressed relative to an untreated control (UTC).
Using the real-time RT-PCR methods, the expression levels of the mir-21 pri-miRNA were compared in HeLa cells treated with this nested series of uniform 2′-MOE oligomeric compounds, targeting and spanning the entire length of the mir-21 pri-miRNA. ISIS Number 358768 (SEQ ID NO: 918) targets a region flanking the predicted 5′ Drosha cleavage site in the mir-21 pri-miRNA. ISIS Number 358777 (SEQ ID NO: 927) targets a region spanning the 3′ Drosha cleavage site in the mir-21 pri-miRNA. ISIS 358779 (SEQ ID NO: 929) targets a region flanking the predicted 3′ Drosha cleavage site in the mir-21 pri-miRNA. Additionally, oligomeric compounds ISIS 327917 (SEQ ID NO: 335), a uniform 2′-MOE compound targeting the mature mir-21 miRNA, and ISIS 345382 ([…]; SEQ ID NO: 335), a 5-10-7 phosphorothioate 2′-MOE gapmer targeting mir-21, were tested for comparison. Oligomeric compound ISIS 327863 ([…]; herein incorporated as SEQ ID NO: 936), a phosphorothioate 5-10-52′-MOE gapmer, was used as scrambled control. […] Total RNA was isolated by lysing cells in 1 mL TRIZOL™ (Invitrogen) using the manufacturer's recommended protocols. real-time RT-PCR analysis was performed using the primer/probe set specific for the mir-21 pri-miRNA molecule [forward primer=ISIS 339332 (SEQ ID NO.: 911), reverse primer-ISIS 339333 (SEQ ID NO.: 912), and probe=ISIS 339334 (SEQ ID NO.: 913)]. Total RNA was quantified using RiboGreen™ RNA quantification reagent (Molecular Probes, Inc. Eugene, Oreg.), expression levels observed for each target were normalized to 5.8S rRNA, and values were expressed relative to the untreated control (UTC). Effects on expression of the mir-21 pri-miRNA molecule resulting from treatment of HeLa cells with these uniform 2′-MOE oligomeric compounds is expressed as a percentage of RNA levels in untreated control cells.

Substance	mir-21 pri-miRNA expression % UTC	levels of the mir-21 pri-miRNA molecule	also measured
327863 (antisense ACGCTAGCCTAATAGCGAGG; sugars from the 5' end e5 d10 e5, all phosphorothioate, methylation of C not given here) [compound 327863]	107 % UTC		
358765 (eA*e[5mC]*eA*eA*eG*e[5mC]*eA*eG*eA*e[5mC]*eA*eG*eT*e[5mC]*eA*eG*eG*e[5mC]*eA*eG; antisense) [compound 358765]	133 % UTC		
358766 (eG*eG*eT*eA*eG*eG*e[5mC]*eA*eA*eA*eA*e[5mC]*eA*eA*eG*e[5mC]*eA*eG*eA*e[5mC]; antisense) [compound 358766]	142 % UTC		
358767 (eG*eG*eA*eG*eA*eT*eG*eT*e[5mC]*eA*e[5mC]*eG*eA*eT*eG*eG*eT*eA*eG*eG; antisense) [compound 358767]	248 % UTC		
358769 (eG*eA*eT*eA*eA*eG*e[5mC]*eT*eA*e[5mC]*e[5mC]*e[5mC]*eG*eA*e[5mC]*eA*eA*eG*eG*eT; antisense) [compound 358769]	265 % UTC		
358770 (eA*eG*eT*e[5mC]*eT*eG*eA*eT*eA*eA*eG*e[5mC]*eT*eA*e[5mC]*e[5mC]*e[5mC]*eG*eA*e[5mC]; antisense) [compound 358770]	250 % UTC		
358771 (e[5mC]*eA*eA*e[5mC]*eA*eG*eT*e[5mC]*eA*eA*e[5mC]*eA*eT*e[5mC]*eA*eG*eT*e[5mC]*eT*eG; antisense) [compound 358771]	181 % UTC		
358772 (eG*eA*eG*eA*eT*eT*e[5mC]*eA*eA*e[5mC]*eA*eG*eT*e[5mC]*eA*eA*e[5mC]*eA*eT*e[5mC]; antisense) [compound 358772]	245 % UTC		
358773 (e[5mC]*eT*eG*eG*eT*eG*eT*eT*eG*e[5mC]*e[5mC]*eA*eT*eG*eA*eG*eA*eT*eT*e[5mC]; antisense) [compound 358773]	148 % UTC		
358774 (antisense e[5mC]*eA*eT*e[5mC]*eG*eA*e[5mC]*eT*eG*eG*eT*eG*eT*eT*eG*e[5mC]*e[5mC]*eA*eT*eG) [compound 358774]	104 % UTC		
358775 (antisense eA*e[5mC]*eA*eG*e[5mC]*e[5mC]*e[5mC]*eA*eT*e[5mC]*eG*eA*e[5mC]*eT*eG*eG*eT*eG*eT*eT) [compound 358775]	222 % UTC		
358776 (antisense eT*eG*eT*e[5mC]*eA*eG*eA*e[5mC]*eA*eG*e[5mC]*e[5mC]*e[5mC]*eA*eT*e[5mC]*eG*eA*e[5mC]*eT) [compound 358776]	367 % UTC		
358777 (antisense e[5mC]*e[5mC]*eA*eA*eA*eA*eT*eG*eT*e[5mC]*eA*eG*eA*e[5mC]*eA*eG*e[5mC]*e[5mC]*e[5mC]*eA) [compound 358777]	536 % UTC		
358778 (antisense eG*eA*eT*eA*e[5mC]*e[5mC]*eA*eA*eA*eA*eT*eG*eT*e[5mC]*eA*eG*eA*e[5mC]*eA*eG) [compound 358778]	503 % UTC		
358779 (antisense eG*eG*eT*e[5mC]*eA*eG*eA*eT*eG*eA*eA*eA*eG*eA*eT*eA*e[5mC]*e[5mC]*eA*eA) [compound 358779]	646 % UTC		
358780 (antisense eA*eA*e[5mC]*eA*eT*eT*eG*eG*eA*eT*eA*eT*eG*eG*eA*eT*eG*eG*eT*e[5mC]) [compound 358780]	269 % UTC		
358781 (antisense eT*eA*eA*eT*eG*eT*eT*eT*eA*eA*eA*eT*eG*eA*eG*eA*eA*e[5mC]*eA*eT) [compound 358781]	122 % UTC		
358782 (antisense eA*eA*e[5mC]*eA*eA*eT*eG*eA*eT*eG*e[5mC]*eT*eG*eG*eG*eT*eA*eA*eT*eG) [compound 358782]	155 % UTC		
358783 (antisense eG*eA*eG*eT*eT*eT*e[5mC]*eT*eG*eA*eT*eT*eA*eT*eA*eA*eA*e[5mC]*eA*eA) [compound 358783]	133 % UTC		
358784 (antisense e[5mC]*eG*eA*e[5mC]*eA*eA*eG*eG*eT*eG*eG*eT*eA*e[5mC]*eA*eG*e[5mC]*e[5mC]*eA*eT) [compound 358784]	358 % UTC		
358785 (antisense eG*eA*eA*eA*eG*eA*eT*eA*e[5mC]*e[5mC]*eA*eA*eA*eA*eT*eG*eT*e[5mC]*eA*eG) [compound 358785]	257 % UTC		
ISIS 358767: uniform 2′-MOE PS; targets mir-21 pri-miRNA (antisense eG*eG*eA*eG*eA*eT*eG*eT*e[5mC]*eA*e[5mC]*eG*eA*eT*eG*eG*eT*eA*eG*eG)		stimulate an increase in levels of the mir-21 pri-miRNA molecule	
ISIS 358768: uniform 2′-MOE PS; SEQ ID NO: 918; region flanking 5′ Drosha cleavage site of mir-21 pri-miRNA (antisense eA*eG*eG*eT*eG*eG*eT*eA*e[5mC]*eA*eG*e[5mC]*e[5mC]*eA*eT*eG*eG*eA*eG*eA) [uniform 2′-MOE PS; region flanking 5′ Drosha cleavage site of mir-21 pri-miRNA]		stimulate an increase in levels of the mir-21 pri-miRNA molecule; also recorded: stimulate the greatest increases in expression of the mir-21 pri-miRNA	mir-21 pri-miRNA levels, dose response (HeLa, 25, 50, 100 and 200 nM): dose-responsive induction of mir-21 pri-miRNA levels
ISIS 358769: uniform 2′-MOE PS; targets mir-21 pri-miRNA (antisense eG*eA*eT*eA*eA*eG*e[5mC]*eT*eA*e[5mC]*e[5mC]*e[5mC]*eG*eA*e[5mC]*eA*eA*eG*eG*eT)		stimulate an increase in levels of the mir-21 pri-miRNA molecule	
ISIS 358770: uniform 2′-MOE PS; targets mir-21 pri-miRNA (antisense eA*eG*eT*e[5mC]*eT*eG*eA*eT*eA*eA*eG*e[5mC]*eT*eA*e[5mC]*e[5mC]*e[5mC]*eG*eA*e[5mC])		stimulate an increase in levels of the mir-21 pri-miRNA molecule	
ISIS 358772: uniform 2′-MOE PS; targets mir-21 pri-miRNA (antisense eG*eA*eG*eA*eT*eT*e[5mC]*eA*eA*e[5mC]*eA*eG*eT*e[5mC]*eA*eA*e[5mC]*eA*eT*e[5mC])		stimulate an increase in levels of the mir-21 pri-miRNA molecule	
ISIS 358775: uniform 2′-MOE PS; targets mir-21 pri-miRNA (antisense eA*e[5mC]*eA*eG*e[5mC]*e[5mC]*e[5mC]*eA*eT*e[5mC]*eG*eA*e[5mC]*eT*eG*eG*eT*eG*eT*eT)		stimulate an increase in levels of the mir-21 pri-miRNA molecule	
ISIS 358776: uniform 2′-MOE PS; targets mir-21 pri-miRNA (antisense eT*eG*eT*e[5mC]*eA*eG*eA*e[5mC]*eA*eG*e[5mC]*e[5mC]*e[5mC]*eA*eT*e[5mC]*eG*eA*e[5mC]*eT)		stimulate an increase in levels of the mir-21 pri-miRNA molecule	
ISIS 358777: uniform 2′-MOE PS; SEQ ID NO: 927; region spanning 3′ Drosha cleavage site of mir-21 pri-miRNA (antisense e[5mC]*e[5mC]*eA*eA*eA*eA*eT*eG*eT*e[5mC]*eA*eG*eA*e[5mC]*eA*eG*e[5mC]*e[5mC]*e[5mC]*eA) [uniform 2′-MOE PS; region spanning 3′ Drosha cleavage site of mir-21 pri-miRNA]		stimulate an increase in levels of the mir-21 pri-miRNA molecule; also recorded: stimulate the greatest increases in expression of the mir-21 pri-miRNA	
ISIS 358778: uniform 2′-MOE PS; targets mir-21 pri-miRNA (antisense eG*eA*eT*eA*e[5mC]*e[5mC]*eA*eA*eA*eA*eT*eG*eT*e[5mC]*eA*eG*eA*e[5mC]*eA*eG)		stimulate an increase in levels of the mir-21 pri-miRNA molecule	
